Results published in paper PMC8535469, “Insight into the Binding and Hydrolytic Preferences of hNudt16 Based on Nucleotide Diphosphate Substrates” (International Journal of Molecular Sciences, 2021).
Read-outs that look alike come from different tables or passages of the source.

What was measured:
hNudt16E76Q [1] = molecular target: T1, hNudt16E76Q (Homo sapiens, UniProt Q96DE0, E76Q); assay: Microscale thermophoresis (MST) binding, two independent binding sites model; settings: for ΔGdiss1 (for Kd1): calculated as −RTlnKd from MST Kd1
T1 construct: 4xHis (four added histidines); made in house; host or cells: E. coli Rosetta 2 (DE3), pET16b
Procedure: Binding constants for protein–ligand pairs were established using the MST method. The hNudt16 E76Q was labeled with RED-tris-NTA 2nd Generation dye (Monolith HIS-tag labeling Kit, NanoTemper Technologies, München, Germany) according to the manufacturer’s instructions. Measurements were carried out in a wide range of ligand concentrations, selected after preliminary tests for each of the ligands. The results obtained were used to determine of binding parameters for a given ligand. Each MST measurement consisted of a series of 16 serial 1:2 dilutions of the ligand, and was performed at a constant dye-labeled protein concentration of 50 nM. After 10 min of pre-incubation, dye-labeled protein–ligand samples were manually loaded into Monolith™ NT.115 Premium Capillaries (NanoTemper Technologies, München, Germany) and analyzed using the Monolith NT.115 (NanoTemper Technologies). […] Analysis was performed using Origin package (OriginLab, Northampton, MA, USA) and dissociation constants were fitted globally for a series of at least six MST pseudo-titration experiments for each ligand. Up to 10 replicates were performed for some ligands.
For the dissociation constants obtained, we also calculated the free energy associated with the dissociation of the complex ΔGdiss according to the equation: ΔGdiss=−RTlnKd.

hNudt16E76Q [2] = molecular target: T1, hNudt16E76Q; assay: Thermal stability of hNudt16E76Q with ligands, dye-free nanoDSF; assay type: binding; settings: 5 µM hNudt16E76Q, 20 mM MgCl2, 0.5 mM ligand; for ∆Tm, nanoDSF (Dye-Free): relative to apo
Procedure: (§1) Protein thermal stability in the presence of various ligands was measured using two DSF methods: assays with SYPRO orange dye and dye-free assays. DSF assays with SYPRO orange dye were performed at specific ligand concentrations for each protein–ligand pair. This measurement was performed as described in Section 4.6.1, with a constant MgCl2 concentration of 20 mM and a concentration of the tested ligand maintained at 0.5 mM. DSF dye-free measurements were performed using a Prometheus NT.48 nanoDSF device (NanoTemper Technologies, München, Germany). The composition of the samples was identical to that in the DSF with SYPRO orange dye measurements, without the addition of any dye. […] The measurements were performed at a single ligand concentration for all ligands. After 10 min of pre-incubation, the samples were loaded into standard capillaries (NanoTemper Technologies, München, Germany). […] We fitted the melting temperatures (Tm) globally for at least three independent experiments (but separately for different DSF methods).

hNudt16 = hNudt16 (Homo sapiens, UniProt Q96DE0); assay: Enzymatic hydrolysis catalyzed by hNudt16, products quantified by HPLC; assay type: biochemical; design: 4xHis (four added histidines); made in house; settings: 20 µM substrate, 37 °C; for Hydrolysis Products / Hydrolysis Rate, v/[E]0 (hydrolyzed substrate per minute per [enzyme] µM) / Hydrolysis Rate, v/µg (hydrolyzed substrate per minute per enzyme µg): pH 7.9, 6 mM MgCl2, nd = hydrolysis products not detected
Procedure: Enzymatic hydrolysis catalyzed by hNudt16 was performed at 37 °C in 40 mM Tris buffer (pH 7.9) containing 100 mM NaCl, 6 mM MgCl2, and 2 mM DTT. The concentration of the investigated dinucleotides and mononucleotides was 20 µM in the reaction mixture.
The hydrolytic susceptibility of the compounds was studied using HPLC. Before each experiment, 1 mL of buffer solution containing the analyte was incubated at 37 °C for 10 min. The hydrolysis process was initiated by the addition of hNudt16. To analyze the reaction progress, 200-µL aliquots of the reaction mixture were withdrawn and incubated at 96 °C for 5 min to stop the reaction through heat inactivation of the enzyme. The samples were then subjected to an HPLC system (Agilent 1200 series, Agilent Technologies, California, USA) with a reverse-phase Supelcosil LC-18-T column and UV/VIS detector. The substrates and hydrolysis products were eluted at 20 °C with a linear gradient of methanol in 0.1 M KH2PO4 (from 0% to 40%) over 15 min at a flow rate of 1.0 mL/min. Changes in the absorbance at 260 nm were continuously monitored during the analysis. Hydrolysis products were identified by comparing their retention times with those of the reference samples. The extent of decapping, determined as the percentage of the hydrolyzed substrate, was calculated using the area under the chromatographic peak of the respective compounds.

hNudt16E76Q [3] = molecular target: T1, hNudt16E76Q; assay: Thermal stability of hNudt16E76Q with ligands, DSF with SYPRO Orange; assay type: binding; settings: 5 µM hNudt16E76Q, 20 mM MgCl2, 0.5 mM ligand, 4× SYPRO Orange; for ∆Tm, DSF (with SYPRO Orange): relative to apo
Procedure: The protein thermal stability of wild-type hNudt16 and all tested mutants in the presence of increasing Mg^2+ ion concentration was measured using DSF with SYPRO orange dye on CFX RT-PCR (Bio-Rad, Hercules, CA, USA). This method is based on the change in fluorescence of the SYPRO orange dye in an aqueous buffer, which is strongly quenched, while its binding to the exposed hydrophobic regions of thermally unfolded protein results in an increased fluorescence. The optimal concentrations of protein, SYPRO orange dye, and buffer composition, in particular ion content, were determined. The samples were prepared and measured in clear 96-well multiplate PCR plates for RT-PCR (Bio-Rad, Hercules, CA, USA). […] The individual components of the solution were added in equal volumes to each well, with a final sample volume of 25 μL/well. The samples were gently mixed, and the 96-well plate was covered with optically clear PCR sealing tape (Bio-Rad, Hercules, CA, USA) to prevent evaporation. […] The data processing procedure was performed using Bio-Rad CFX Manager (version 1.6.541.1028), and melting point temperatures were calculated as the minimum of the first derivative plot.
as §1

[4] = stronger binding site, 50 nM dye-labeled protein, read-out: Kd1
[5] = second, weaker binding site, read-out: Kd2

T1 sequence (Q96DE0 whole entry E76Q): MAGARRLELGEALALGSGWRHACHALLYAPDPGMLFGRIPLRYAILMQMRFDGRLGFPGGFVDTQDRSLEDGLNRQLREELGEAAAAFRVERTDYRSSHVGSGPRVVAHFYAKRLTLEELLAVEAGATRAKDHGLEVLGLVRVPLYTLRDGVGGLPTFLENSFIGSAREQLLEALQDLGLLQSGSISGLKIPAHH
Chain of hNudt16 (Q96DE0 whole entry): as the sequence (Q96DE0 whole entry E76Q) above, with Q76E counted along it

Row | Structure (SMILES) | ΔGdiss1 (for Kd1) (hNudt16E76Q [1]) [kcal/mol] | Kd (hNudt16E76Q [1]; [4]) [µM] | Tm, nanoDSF (Dye-Free) (hNudt16E76Q [2]) [°C] | ∆Tm, nanoDSF (Dye-Free) (hNudt16E76Q [2]) [°C] | Hydrolysis Products (hNudt16) | Hydrolysis Rate, v/[E]0 (hydrolyzed substrate per minute per [enzyme] µM) (hNudt16) | Hydrolysis Rate, v/µg (hydrolyzed substrate per minute per enzyme µg) (hNudt16) [µM/min/µg] | Tm, DSF (with SYPRO Orange) (hNudt16E76Q [3]) [°C] | ∆Tm, DSF (with SYPRO Orange) (hNudt16E76Q [3]) [°C] | Susceptibility to hydrolysis by hNudt16 (in words) (hNudt16; HPLC) | ΔGdiss2 (for Kd2) (hNudt16E76Q [1]; calculated as −RTlnKd from MST Kd2) [kcal/mol] | Kd (hNudt16E76Q [1]; [5]) [µM]
1 | Nc1ncnc2c1ncn2[C@@H]1O[C@H](COP(=O)(O)OP(=O)(O)OC[C@H]2O[C@@H](n3cnc4c(N)ncnc43)[C@H](O)[C@@H]2O)[C@@H](O)[C@H]1O [AppA] | 4.192 | 833 | 66.8 ± 0.1 | 1.7 ± 0.1 | AMP | 40.8 ± 2.9 µM/min/[E]0 | 1.70 ± 0.12 | 65.2 ± 0.1 | 1.5 ± 0.1 | – | – | –
2 | Nc1ccn([C@@H]2O[C@H](COP(=O)(O)OP(=O)(O)O)[C@@H](O)[C@H]2O)c(=O)n1 [CDP, Cytidine diphosphate] | – | – | 66.8 ± 0.1 | 1.66 ± 0.1 | – | – | – | 65.6 ± 0.1 | 1.81 ± 0.1 | – | – | –
3 | Nc1nc2c(ncn2[C@@H]2O[C@H](COP(=O)(O)OP(=O)(O)O)[C@@H](O)[C@H]2O)c(=O)[nH]1 [GDP, Guanosine diphosphate] | 8.97 | 0.258 ± 0.045 | 78.6 ± 0.1 | 13.5 ± 0.1 | – | – | – | 77.0 ± 0.1 | 13.3 ± 0.1 | – | 5.911 | 45.6 ± 2.4
4 | Nc1nc2c(ncn2[C@@H]2O[C@H](COP(=O)(O)OP(=O)(O)OP(=O)(O)OC[C@H]3O[C@@H](n4cnc5c(=O)[nH]c(N)nc54)[C@H](O)[C@@H]3O)[C@@H](O)[C@H]2O)c(=O)[nH]1 [GpppG] | – | – | 76.0 ± 0.1 | 10.9 ± 0.1 | – | – | – | 74.8 ± 0.1 | 11.0 ± 0.1 | – | – | –

More lines, main results first:

Row | ΔGdiss1 (for Kd1) (hNudt16E76Q [1]) [kcal/mol] | Kd (hNudt16E76Q [1]; [4]) [µM] | Tm, nanoDSF (Dye-Free) (hNudt16E76Q [2]) [°C] | ∆Tm, nanoDSF (Dye-Free) (hNudt16E76Q [2]) [°C] | Hydrolysis Products (hNudt16) | Hydrolysis Rate, v/[E]0 (hydrolyzed substrate per minute per [enzyme] µM) (hNudt16) | Hydrolysis Rate, v/µg (hydrolyzed substrate per minute per enzyme µg) (hNudt16) [µM/min/µg] | Tm, DSF (with SYPRO Orange) (hNudt16E76Q [3]) [°C] | ∆Tm, DSF (with SYPRO Orange) (hNudt16E76Q [3]) [°C] | Susceptibility to hydrolysis by hNudt16 (in words) (hNudt16; HPLC) | Structure (SMILES) | ΔGdiss2 (for Kd2) (hNudt16E76Q [1]; calculated as −RTlnKd from MST Kd2) [kcal/mol] | Kd (hNudt16E76Q [1]; [5]) [µM]
5 | – | – | 66.1 ± 0.1 | 1.1 ± 0.1 | NMN + AMP | 3.4 ± 0.4 µM/min/[E]0 | 0.14 ± 0.02 | 63.7 ± 0.1 | 0.0 ± 0.1 | – | NC(=O)c1ccc[n+]([C@@H]2O[C@H](COP(=O)([O-])OP(=O)(O)OC[C@H]3O[C@@H](n4cnc5c(N)ncnc54)[C@H](O)[C@@H]3O)[C@@H](O)[C@H]2O)c1 [NAD, Nicotinamide adenine dinucleotide] | – | –
6 | – | – | 67.4 ± 0.1 | 2.4 ± 0.1 | AMP + NMNH | 18.7 ± 1.5 µM/min/[E]0 | 0.78 ± 0.06 | 64.9 ± 0.1 | 1.1 ± 0.1 | – | NC(=O)C1=CN([C@@H]2O[C@H](COP(=O)(O)OP(=O)(O)OC[C@H]3O[C@@H](n4cnc5c(N)ncnc54)[C@H](O)[C@@H]3O)[C@@H](O)[C@H]2O)C=CC1 [NADH, Reduced NAD+] | – | –
7 | – | – | 66.7 ± 0.1 | 1.6 ± 0.1 | – | – | – | 64.4 ± 0.1 | 0.7 ± 0.1 | resistant to hydrolytic cleavage | C[n+]1cn([C@@H]2O[C@H](COP(=O)(O)OP(=O)(O)O)[C@@H](O)[C@H]2O)c2nc(N)[nH]c(=O)c21 [m^7GDP, 7-methylguanosine diphosphate] | – | –
8 | 8.026 | 1.7 | 73.5 ± 0.1 | 8.4 ± 0.1 | – | – | – | 72.3 ± 0.1 | 8.5 ± 0.1 | – | Cn1c[n+]([C@@H]2O[C@H](COP(=O)(O)OP(=O)([O-])OP(=O)(O)OC[C@H]3O[C@@H](n4cnc5c(=O)[nH]c(N)nc54)[C@H](O)[C@@H]3O)[C@@H](O)[C@H]2O)c2nc(N)[nH]c(=O)c21 [m^7GpppG] | – | 230 ± 57
